In series [1] the test system is PP2A. The series can be described thus: PP2A activity in lysates of Ramos B cell line. The format is cell-based, Human. On the procedure:
(§1) PP2A Activity: The protein phosphatase activity of total cellular lysate was determined by measuring the generation of free PO4 from the threonine phosphopeptide using the malachite green-phosphate complex assay as described by the manufacturer (Upstate, Charlottesville, […].). Cell lysates were prepared in a low detergent lysis buffer (1% Nonidet P-40, 10 mM HEPES, 0.5M NaCl, 10% Glycerol, 1 mM PMSF, 5 mM Benzamidine, 10 μg/ml leupeptin). The phosphatase assay was performed in a PP2A-specific reaction buffer (Upstate) using 750 μM phosphopeptide substrate. After 30-min incubation at 30° C. malachite dye was added, and free phosphate was measured by optical density at 650 nm. To avoid variability among different immunoprecipitated samples, the phosphatase activities were normalized with the amount of PP2A immunoprecipitated, as detected and quantified by western blot analysis of each treatment group.
In order to determine if FTY720 induced activation of PP2A enzyme in CD19^+ B cells from CLL patients were treated with 10 uM FTY720 for 0, 1, 2, 3, 4 and 15 hrs and the PP2A activity in the lysates were quantified using a functional assay following immunoprecipitation of PP2A enzyme. As reported previously in other systems, FTY720 induced a consistent 2-3 fold increase in PP2A activation with the peak response observed at 4 hour post treatment (FIG. 6a). […]

Series [2] has as its system MEC, Ramos, Raji, 697 and RS4-11 B cell lines. Briefly: Annexin V/PI viability by flow cytometry in B cell lines. The format is cell-based, Human. The conditions noted are these: Ramos cells; okadaic acid pretreatment. On the procedure: Cells: Blood was obtained from patients with B-cell CLL with informed consent under a protocol approved by the hospital internal review board. All patients examined in this series had immunophenotypically defined CLL as outlined by the modified 96 National Cancer Institute criteria. B-CLL cells were isolated from freshly donated blood using ficoll density gradient centrifugation (Ficoll-Paque Plus, Amershan Biosciences, Piscataway, N.J.). Isolated mononuclear cells were incubated in RPMI 1640 media (Gibco/Invitrogen, Carlsbad, Calif.) supplemented with 10% heat-inactivated fetal bovine serum (FBS, Hyclone Laboratories, Logan, Utah), 2 mM L-glutamine (Invitrogen, Carlsbad, Calif.), and penicillin (100 U/mL)/streptomycin (100 μg/ml) [Sigma-Aldrich, St. Louis] at 37° C. in an atmosphere of 5% CO2. Freshly isolated B-CLL cells were used in all experiments described herein. […]
Analysis of cell viability and apoptosis: The cell viability was carried out by dual staining with Annexin V conjugated to flourescein-isothyocyanate (FITC) and Propidium iodide (PI) as described previously. Briefly, 1×10^6 cells were stained with Annexin V-FITC (BD Pharmingen) and Propidium iodide (BD Pharmingen) for 15 minutes in dark and analyzed by flow cytometry using a Beckman-Coulter EPICS XL cytometer (Beckman-Coulter, Miami, Fla.). […]

Series [3] deals with PP2A. The series can be described thus: PP2A activity (malachite green phosphatase assay) in lysates of CLL cells. In kind it is cell-based, Human. The conditions noted are these: pretreatment with 5 nM okadaic acid. On the procedure:
as §1
In order to determine if FTY720 induced activation of PP2A enzyme in CD19^+ B cells from CLL patients were treated with 10 uM FTY720 for 0, 1, 2, 3, 4 and 15 hrs and the PP2A activity in the lysates were quantified using a functional assay following immunoprecipitation of PP2A enzyme. As reported previously in other systems, FTY720 induced a consistent 2-3 fold increase in PP2A activation with the peak response observed at 4 hour post treatment (FIG. 6a). […] Similar phenomenon was also observed in Ramos B cell line. FTY720 induced activation of PP2A in Ramos cell line as early as 3 hours and this induced PP2A activity was inhibited by okadaic acid (FIG. 7a-b).

Series [4] concerns CD19+ B cells from CLL patients. In kind it is cell-based. The conditions noted are these: CLL cells. The procedure:
Cells: Blood was obtained from patients with B-cell CLL with informed consent under a protocol approved by the hospital internal review board. All patients examined in this series had immunophenotypically defined CLL as outlined by the modified 96 National Cancer Institute criteria. B-CLL cells were isolated from freshly donated blood using ficoll density gradient centrifugation (Ficoll-Paque Plus, Amershan Biosciences, Piscataway, N.J.). Isolated mononuclear cells were incubated in RPMI 1640 media (Gibco/Invitrogen, Carlsbad, Calif.) supplemented with 10% heat-inactivated fetal bovine serum (FBS, Hyclone Laboratories, Logan, Utah), 2 mM L-glutamine (Invitrogen, Carlsbad, Calif.), and penicillin (100 U/mL)/streptomycin (100 μg/ml) [Sigma-Aldrich, St. Louis] at 37° C. in an atmosphere of 5% CO2. Freshly isolated B-CLL cells were used in all experiments described herein. Enriched B-lymphocyte fractions were prepared by using MACS negative selection kit by Miltenyi Biotech (Auburn, Calif.) or by “Rosette-Sep” kit from Stem Cell Technologies (Vancouver, British Columbia, Canada) according to the manufacturer's instructions. Human B-lymphocyte cell lines Raji and Ramos were obtained from ATCC (Manassas, Va.) and the MEC cells were obtained from German cell line bank (Braunschweig, Germany). The 697-neo and 697-Bcl-2 cell lines were kind gift from Dr. John Reed (Burnham Institute, La Jolla, Calif.). Cells were cultured at 37° C. in an atmosphere of 5% CO2 in RPMI 1640 media (Gibco/Invitrogen, Carlsbad, Calif.) supplemented with 10% fetal bovine serum (Gibco/Invitrogen).
Analysis of cell viability and apoptosis: The cell viability was carried out by dual staining with Annexin V conjugated to flourescein-isothyocyanate (FITC) and Propidium iodide (PI) as described previously. Briefly, 1×10^6 cells were stained with Annexin V-FITC (BD Pharmingen) and Propidium iodide (BD Pharmingen) for 15 minutes in dark and analyzed by flow cytometry using a Beckman-Coulter EPICS XL cytometer (Beckman-Coulter, Miami, Fla.). Apoptotic cells were identified as Annexin V and/or PI positive cells. Cells excluding both FITC and PI were considered to be viable. The Annexin V^−/PI^− cells are represented as % live cells normalized to untreated controls.
B-CLL cells are reported to be resistant to apoptosis in-vivo. To systematically analyze the effects of FTY720 on B-CLL cells, purified CD19^+ cells from B-CLL patients were incubated with increasing concentrations of FTY720 ranging from 0, 0.5, 1, 1.5, 2.5, 5 or 10 uM. The cytotoxic effects were independently determined by flow cytometry using propidium iodide (PI) and Annexin V conjugated FITC reagents. Populations excluding both PI and Annexin V-FITC staining were considered viable. […]

In another series the test system is Mino cells. Briefly: Annexin V/PI toxicity in Mino cells. The format is cell-based, Human. The conditions noted are these: 150 μM z-VAD-fmk. On the procedure: Primary MCL cells were isolated from PBMC (with informed patient consent under a protocol approved by IRB) as described before. All the MCL patients were identified as outlined by the World Health Organization (WHO) classification. Human mantle cell lymphoma patient cell lines (Mino and Jeko) were obtained from Dr. Raymond Lai. Primary cells or MCL cell lines were incubated in RPMI 1640 media, supplemented with 10%-20% heat-inactivated fetal bovine serum, 2 mM L-glutamine and penicillin (100 U/mL)/streptomycin ([…]) at 37° C. in an atmosphere of 5% CO2. FTY720 was synthesized as previously described. Toxicity was determined by flow cytometry using Annexin-V-FITC and Propidium Iodide (PI) staining. Apoptotic cells were identified as Annexin-V+ and/or PI+ cells. Cells excluding both FITC and PI were considered viable. Western Blotting was performed as described previously using indicated antibodies. The PARP (Ab-2) and Caspase 9 antibodies were purchased from Oncogene/Calbiochem/EMD Biosciences (San Diego, Calif.). Cyclin D1, Akt, Actin, Mcl-1, p-ERK, ERK and Bcl-2 were obtained from Santa Cruz biotech (Santa Cruz, Calif.).
Several therapeutic agents, including fludarabine, chlorambucil, 2-chloro-2-deoxyadenosine and glucocorticoids, induce toxicity in B cell malignancies through activating caspases, the cysteine proteases of CED3/ICE family. Inhibition of these caspases results in abrogation of apoptosis mediated by the toxic stimuli. To determine if caspase activation is involved in FTY720-induced cytotoxicity in MCL, we pretreated Mino cells with 150 μM broad spectrum caspase inhibitor z-VAD-fmk. […] Activation of caspases results in cleavage of key cellular proteins including poly-ADP-ribose polymerase (PARP).

Turning to `C=C1[C@@H](O)[C@@H]2O[C@]3(CC[C@H](/C=C/[C@@H](C)[C@@H]4CC(C)=C[C@@]5(O[C@H](C[C@@](C)(O)C(=O)O)CC[C@H]5O)O4)O3)CC[C@H]2O[C@@H]1[C@@H](O)C[C@H](C)[C@H]1O[C@@]2(CCCCO2)CC[C@H]1C` [okadaic acid], in the series with PP2A [1], the “effect of okadaic acid on FTY720 induced PP2A activity” value is listed as “inhibited”. In addition, in series [2], the “effect of okadaic acid on FTY720 induced apoptosis” value was “inhibition of FTY720 induced apoptosis”. Besides, the “inhibition of the FTY720 induced PP2A activation” value with PP2A [3] is given as ≤ 3 fold. Further, the “effect of okadaic acid on FTY720 induced cellular cytotoxicity” value in series [4] (okadaic acid pretreatment) is reported as “inhibition of FTY720 induced cellular cytotoxicity”.
z-VAD-fmk: in the series on Mino cells, the “reduction in FTY720 induced apoptosis” value is recorded as ~50% and the “reduction in fludarabine induced apoptosis” value is on record as ~50%. Moreover, in series [4] (z-VAD-fmk 150 uM), the “effect of z-VAD-fmk on FTY720 induced apoptosis” value is on record as “failed to prevent FTY720 induced apoptosis” and the “effect of z-VAD-fmk on fludarabine induced apoptosis” value was “effectively rescued fludarabine induced apoptosis”.

Values taken from US8318812B2, “Therapeutic agents for the treatment of lymphoid malignancies” (The Ohio State University Research Foundation, priority 2006, dated 2012).
